Laboratory results taken from US20110229437A1, “Method of Treating Asthma with Antiviral Agents” (priority 2009, published 2011).

Columns and labels:
[1] = Case report: asthma symptoms of an adult with history of asthma after a 5 day course of Tamiflu; conditions: one patient
Source text: They had been using Advair® two inhalations a day or Symbicort® four puffs a day. Advair® is a combination formulation containing fluticasone propionate (a corticosteroid) and salmeterol xinafoate (a long-acting β2-adrenergic receptor agonist). Symbicort® contains two active ingredients which are delivered via a single inhaler: budesonide, a corticosteroid, and formoterol, a long-acting β2-agonist.
Singulair® contains montelukast, a leukotriene receptor antagonist (LTRA) used for the maintenance treatment of asthma and to relieve symptoms of seasonal allergies.

[2] = Case report: flu like symptoms of the same adult under Tamiflu; assay type: in vivo, human; conditions: Tamiflu 75 mg by mouth twice a day

Row | SMILES | asthma symptoms ([1]; during/after Tamiflu 75 mg by mouth twice a day for 5 days) | level of asthmatic relief compared with prednisone 60 mg per day, reported by the patient ([1]; five weeks after using Tamiflu) | time until fatigue resolved ([2]; one patient) | time until feeling better and myalgias relieved ([2]; one patient) | fever after start of treatment ([2]; dropped from 39 C.° within 1.5 days) | side effects in the patient ([1]; used for years)
1 | CCOC(=O)C1=C[C@@H](OC(CC)CC)[C@H](NC(C)=O)[C@@H](N)C1 [Tamiflu, Oseltamivir phosphate] | diminished | similar | ≤ 1.5 days | ≤ 12 h | 38 C.° | 
2 | CC(C)(O)c1ccccc1CC[C@@H](SCC1(CC(=O)O)CC1)c1cccc(/C=C/c2ccc3ccc(Cl)cc3n2)c1 [Singulair, montelukast] |  |  |  |  |  | no side effects
